Measured values taken from US20020137929A1, “1 - (3-heterocyclylphenyl) isothiourea, -isourea, -guanidine and -amidine herbicidal agents” (Intellectual Property Department, BASF Aktiengesellschaft, priority 1998, published 2002).

Legend:
[1] = tested on: ECHCG (Barnyardgrass); experiment: Postemergence herbicidal evaluation; format: in vivo, Echinochloa crus-galli; details: postemergence
How it was run: (§1)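 Seedlings grown about two weeks were sprayed at 40 psi with compound dispersed in 50/50 acetone/water plus 0.5% TWEEN 20, at about 0.0156 to 0.500 kg/ha. Plants were kept in the greenhouse and scored 4–5 weeks later on a 0–9 visual scale against untreated controls.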

[2] = tested on: ORYSAT (Rice, Tebonnet); experiment: Postemergence herbicidal evaluation; format: in vivo, Oryza sativa, (L.) Tebonnet; details: postemergence
How it was run: as §1

[3] = tested on: AMBEL (Ragweed, Common); experiment: Postemergence herbicidal evaluation; format: in vivo, Ambrosia artemisifolia; details: postemergence
How it was run: as §1

[4] = tested on: CYPSE (Flatsedge); experiment: Preemergence weed control under flooded paddy conditions; format: in vivo, Cyperus serotinus; details: rated 3-4 weeks after treatment
How it was run: (§2)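 Seeds or propagules sown in silt loam kept flooded 1.5-3 cm; compounds in 50/50 acetone/water pipetted into flood water at about 0.0313 to 0.500 kg/ha. Greenhouse; visual 0-9 rating versus untreated control 3-4 weeks after treatment.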

[5] = tested on: CASOB (Sicklepod); experiment: Postemergence herbicidal evaluation; format: in vivo, Cassia obtusifolia; details: postemergence
How it was run: as §1

[6] = tested on: CASOB (Sicklepod); experiment: Preemergence herbicidal evaluation; format: in vivo, Cassia obtusifolia; details: rated 4-5 weeks after treatment
How it was run: (§3)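 Greenhouse preemergence test: seed-soil mix sown on ~1 inch soil; aqueous acetone spray at equivalent of ~0.0156–0.500 kg/ha; greenhouse-held and watered; scored 0–9 visually at 4–5 weeks.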

[7] = tested on: GLXMAW (Soybean, Williams); experiment: Postemergence herbicidal evaluation; format: in vivo, Glycine max, (L.) Merr. cv Williams; details: postemergence
How it was run: as §1

[8] = tested on: GALAP (Galium); experiment: Preemergence herbicidal evaluation; format: in vivo, Galium aparine; details: rated 4-5 weeks after treatment
How it was run: as §3

[9] = tested on: CHEAL (Lambsquarters, Common); experiment: Postemergence herbicidal evaluation; format: in vivo, Chenopodium album; details: postemergence
How it was run: as §1

[10] = tested on: SETVI (Foxtail, Green); experiment: Postemergence herbicidal evaluation; format: in vivo, Setaria viridis; details: postemergence
How it was run: as §1

[11] = tested on: GALAP (Galium); experiment: Postemergence herbicidal evaluation; format: in vivo, Galium aparine; details: postemergence
How it was run: as §1

[12] = tested on: CYPSE (Flatsedge); experiment: Postemergence weed control under flooded paddy conditions; format: in vivo, Cyperus serotinus; details: postemergence weeds, rated 3 to 4 weeks after treatment
How it was run: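 With weeds 3 to 5 cm tall and rice at the 1.5 to 2.5 leaf stage, containers were flooded and water held 1.5 to 3 cm above soil. Compounds in 50/50 v/v aqueous/acetone went into the flood water at about 0.0313 to 0.500 kg/ha a.i. Effects were visually rated 0–9 against controls after three to four weeks in the greenhouse.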

[13] = tested on: CYPIR (Rice Flatsedge); experiment: Preemergence weed control under flooded paddy conditions; format: in vivo, Cyperus iria; details: rated 3-4 weeks after treatment
How it was run: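 Flooded-pot preemergence screen with silt loam and seeds in the upper 0.5 cm. Dose about 0.0313 to 0.500 kg/ha, delivered into flood water; visual 0-9 score after 3 to 4 weeks.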

[14] = tested on: ZEAMX (Corn, Field); experiment: Preemergence herbicidal evaluation; format: in vivo, Zea mays; details: rated 4-5 weeks after treatment
How it was run: as §3

[15] = tested on: SAGPY (Arrowhead (Pygmaea)); experiment: Preemergence weed control under flooded paddy conditions; format: in vivo, Sagittaria pygmaea; details: rated 3-4 weeks after treatment
How it was run: as §2

CCOC(=O)CN1C(=O)C(CC(=O)Nc2ccccc2)SC1=Nc1cc(-n2c(=O)cc(C(F)(F)F)n(C)c2=O)c(F)cc1Cl (stereo not shown) [Compound 68, Ethyl 2-{{2-chloro-5-[3,6-dihydro-3-methyl-2,6-dioxo-4-(trifluoromethyl)-1(2H)-pyrimidinyl]-4-fluorophenyl}imino}-4-oxo-5-[(phenylcarbamoyl)-methyl]-3-thiazolidineacetate]
4.0: ORYSAT herbicidal rating ([2]; rate 0.0630 kg/ha) | CASOB herbicidal rating ([5]; rate 0.0315 kg/ha) | CHEAL herbicidal rating ([9]; rate 0.0158 kg/ha) | GALAP herbicidal rating ([11]; rate 0.0630 kg/ha)
5.5: GLXMAW herbicidal rating ([7]; rate 0.0315 kg/ha)
1.0: CASOB herbicidal rating ([5]; rate 0.0158 kg/ha) | Preemergence herbicidal rating CASOB ([6]; rate 0.2500 kg/ha) | Preemergence herbicidal rating ZEAMX ([14]; rate 0.1250 kg/ha) | Preemergence herbicidal rating ZEAMX ([14]; rate 0.2500 kg/ha)
3.5: ORYSAT herbicidal rating ([2]; rate 0.0315 kg/ha)
7.0: CASOB herbicidal rating ([5]; rate 0.0630 kg/ha) | GLXMAW herbicidal rating ([7]; rate 0.0630 kg/ha) | CHEAL herbicidal rating ([9]; rate 0.0315 kg/ha) | CHEAL herbicidal rating ([9]; rate 0.0630 kg/ha)
6.0: GLXMAW herbicidal rating ([7]; rate 0.0158 kg/ha) | SETVI herbicidal rating ([10]; rate 0.0315 kg/ha) | SETVI herbicidal rating ([10]; rate 0.0630 kg/ha)
5.0: ECHCG herbicidal rating ([1]; rate 0.0630 kg/ha) | CYPIR herbicidal effect rating ([13]; 0.1250 kg/ha)
2.0: ECHCG herbicidal rating ([1]; rate 0.0158 kg/ha) | ECHCG herbicidal rating ([1]; rate 0.0315 kg/ha) | SETVI herbicidal rating ([10]; rate 0.0158 kg/ha) | GALAP herbicidal rating ([11]; rate 0.0158 kg/ha)
0.0: CYPSE herbicidal effect rating ([4]; 0.0313 kg/ha) | CYPSE herbicidal effect rating ([4]; 0.0625 kg/ha) | CYPSE herbicidal effect rating ([4]; 0.1250 kg/ha) | CYPSE herbicidal effect rating ([4]; 0.2500 kg/ha) | Preemergence herbicidal rating CASOB ([6]; rate 0.0156 kg/ha) | Preemergence herbicidal rating CASOB ([6]; rate 0.0313 kg/ha) | Preemergence herbicidal rating CASOB ([6]; rate 0.0625 kg/ha) | Preemergence herbicidal rating CASOB ([6]; rate 0.1250 kg/ha) | Preemergence herbicidal rating GALAP ([8]; rate 0.0156 kg/ha) | Preemergence herbicidal rating GALAP ([8]; rate 0.0313 kg/ha) | Preemergence herbicidal rating GALAP ([8]; rate 0.0625 kg/ha) | Preemergence herbicidal rating GALAP ([8]; rate 0.1250 kg/ha) | Preemergence herbicidal rating GALAP ([8]; rate 0.2500 kg/ha) | Herbicidal rating CYPSE ([12]; Rate 0.0313 kg/ha) | Herbicidal rating CYPSE ([12]; Rate 0.0625 kg/ha) | Herbicidal rating CYPSE ([12]; Rate 0.1250 kg/ha) | Herbicidal rating CYPSE ([12]; Rate 0.2500 kg/ha) | CYPIR herbicidal effect rating ([13]; 0.0313 kg/ha) | CYPIR herbicidal effect rating ([13]; 0.0625 kg/ha) | Preemergence herbicidal rating ZEAMX ([14]; rate 0.0156 kg/ha) | Preemergence herbicidal rating ZEAMX ([14]; rate 0.0313 kg/ha) | Preemergence herbicidal rating ZEAMX ([14]; rate 0.0625 kg/ha) | SAGPY herbicidal effect rating ([15]; 0.0313 kg/ha) | SAGPY herbicidal effect rating ([15]; 0.0625 kg/ha) | SAGPY herbicidal effect rating ([15]; 0.1250 kg/ha)
8.0: CYPIR herbicidal effect rating ([13]; 0.2500 kg/ha)
3.0: ORYSAT herbicidal rating ([2]; rate 0.0158 kg/ha) | GALAP herbicidal rating ([11]; rate 0.0315 kg/ha) | SAGPY herbicidal effect rating ([15]; 0.2500 kg/ha)
9.0: AMBEL herbicidal rating ([3]; rate 0.0158 kg/ha) | AMBEL herbicidal rating ([3]; rate 0.0315 kg/ha) | AMBEL herbicidal rating ([3]; rate 0.0630 kg/ha)
